{"source": "paper PMC6372612", "about": "“Immunoglobulin G modulation of the melanocortin 4 receptor signaling in obesity and eating disorders” (Translational Psychiatry, 2019)", "key": {"male Sprague-Dawley rats": {"system": "male Sprague-Dawley rats", "assay": "Food intake in rats after intra-PVN injection of α-MSH or α-MSH/IgG IC", "assay_type": "in vivo, rat", "details": "intra-PVN 2 µL α-MSH 2.5 mg/mL; 12-h fasted rats; vs aCSF", "procedure": "Animal care and experimentation were in accordance with guidelines established by the National Institutes of Health, French and European Community regulations (Official Journal of the European Community L 358, 18/12/1986) and the study was approved by a Regional Ethical Committee (Rouen, France). Sample sizes were selected based on previous experiments. Non-randomized male Sprague-Dawley rats were anesthetized by ketamine (75 mg/kg, Virbac, Carros, France)/xylazine (5 mg/kg, Bayer, Leverkusen, France) solution (3:1 vol., 0.1 mL/100 g, intraperitoneal (IP)) and were stereotaxically implanted with a 9-mm guide cannula (PlasticsOne, Roanoke, VA, USA) into the paraventricular nucleus (PVN). Upon awakening, rats were individually maintained in metabolic cages (Techniplast, Louviers, France) for 5–6 days. […] Food intake was measured 30 min and 2 h after injection.\nAnimal care and experimentation were in accordance with guidelines established by the National Institutes of Health, French and European Community regulations (Official Journal of the European Community L 358, 18/12/1986). […] Food intake was measured 30 min and 2 h after injection. […]"}, "wild-type C57Bl/6 mice": {"system": "wild-type C57Bl/6 mice", "assay": "Food intake in wild-type mice after IP α-MSH", "assay_type": "in vivo, mouse", "details": "α-MSH 100 µg/kg IP, beginning of dark phase; vs basal food intake; n = 6", "procedure": "Rag^−/− mice (n = 6), bred in a specific-pathogen-free area, were generously provided by Professor Olivier Boyer and a person, Inserm 1234, Rouen. Rag^−/− and C57Bl/6 male mice were individually housed in BioDaq® cages (Research Diets Inc., New Brunswick, NJ, USA) for 7 days, and the basal food intake of each animal was measured during the first 4 h of the dark phase. At day 8, IP injections of α-MSH (100 µg/kg, Bachem) were performed at the beginning of the dark phase. Individual food intake after injection was compared to the basal food intake of the pretreatment period.\nUpon arrival into the animal facility, male C57Bl/6 mice (7 weeks – n=6) purchased from Janvier Labs and Rag^-/- mice (generated by the Inserm UMR905 laboratory in a specific-pathogen-free area, n=6) were housed in standard cages (3 mice per cage) in environmental conditions (23 ± 1 °C, 12:12 h light-dark cycle) with standard pellet rodent chow and water available ad libitum. After 7 days of acclimatization, animals were individually housed in BioDaq® cages (Research Diets Inc., New Brunswick, NJ, USA) that provide automatic food intake measurements. During 7 days, the basal food intake of each animal was measured during the first 4 hours of the dark phase. At day 8, intraperitoneal injections of a-MSH (100 µg/kg, Bachem) were performed at the beginning of the dark phase. […]"}, "[1]": {"system": "control HEK 293 cells lacking MC4R", "assay": "cAMP production by control HEK 293 cells lacking MC4R", "details": "15 min at 23 °C", "quoted_text": "Stable cultured HEK 293 cell line were treated with 0.25 % trypsin-EDTA, cell pellet was re-suspended in PBS and filed in a non-culture treated white 96-microwell plate (Nunc, ≈5000 cells/10 µL/well). The cyclic adenosine monophosphate (cAMP) production by MC4-R expressing HEK 293 cells was measured using the bioluminescence assay cAMP-Glo^TM Max assay kit (Promega, Madison, WI, USA) according to the manufacturer's instructions. Briefly, cells were incubated 15 min at 23°C with different dilutions of α-MSH peptide (from 1 to 60 pmol, Bachem). Serial dilutions of cAMP standard (provided by the kit) were assayed on the same microplate. Lysis buffer and cAMP detection solution were added to each well and cells were homogenized by agitation and centrifugation during 2 min at 1000 rpm. Then, the plates were incubated for 20 min at 23°C in a dry incubator. Kinase-Glo reagent substrate was added in each well and the luminescence was read with a bioluminescence detection instrument (Safas Spectrometer, Monaco)."}, "[2]": {"molecular_target": "human melanocortin 4 receptor (human) (UniProt P32245)", "sequence (P32245 whole entry)": "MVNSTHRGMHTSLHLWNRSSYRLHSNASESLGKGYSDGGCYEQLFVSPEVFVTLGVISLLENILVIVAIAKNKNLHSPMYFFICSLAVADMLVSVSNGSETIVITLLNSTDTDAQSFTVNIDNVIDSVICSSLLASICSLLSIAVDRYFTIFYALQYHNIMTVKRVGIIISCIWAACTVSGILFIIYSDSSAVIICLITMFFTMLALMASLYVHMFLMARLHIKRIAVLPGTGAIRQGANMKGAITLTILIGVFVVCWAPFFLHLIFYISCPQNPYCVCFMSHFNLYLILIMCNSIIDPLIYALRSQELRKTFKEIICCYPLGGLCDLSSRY"}, "[3]": {"molecular_target": "human melanocortin 4 receptor (human) (UniProt P32245)", "assay": "SPR; BIAcore 1000; hMC4R-expressing HEK 293 cells coated on the biosensor surface; analyte α-MSH in immune complex with IgG from obese patients; Langmuir 1:1 fit after blank subtraction"}, "[4]": {"details": "cited from earlier work", "description": "In fact, the role of both the N- and C-terminals of α-MSH in binding to different MCR subtypes has been shown, with the C-terminal being essential for MC4R recognition. Thus hiding of the C-terminal by IgG in OB patients appears as a negative modulator of α-MSH/IgG IC activation of MC4R. […] 12–13 of the α-MSH C-terminal have also been detected in narcolept ..."}, "human MC4R": {"system": "human MC4R", "assay": "cAMP production by MC4R-expressing HEK 293 cells", "assay_type": "cell-based", "details": "AgRP 100 nM, 45 min preincubation or co-administered; n = 2/group", "quoted_text": "cAMP production by MC4R-expressing HEK 293 cells was measured using the bioluminescence assay cAMP-Glo^TM Max Assay Kit (Promega, Madison, WI, USA) as previously described[25]. α-MSH peptide was preincubated overnight at 4 °C before the experiment with pooled purified IgG diluted in PBS. To confirm the specificity of MC4R-dependent cAMP release, MC4R + HEK 293 cells were preincubated with the MC4R reverse agonist AgRP (100 nM, Bachem).\nThe cyclic adenosine monophosphate (cAMP) production by MC4-R expressing HEK 293 cells was measured using the bioluminescence assay cAMP-Glo^TM Max assay kit (Promega, Madison, WI, USA) according to the manufacturer's instructions. Briefly, cells were incubated 15 min at 23°C with different dilutions of α-MSH peptide (from 1 to 60 pmol, Bachem). Serial dilutions of cAMP standard (provided by the kit) were assayed on the same microplate. Lysis buffer and cAMP detection solution were added to each well and cells were homogenized by agitation and centrifugation during 2 min at 1000 rpm. Then, the plates were incubated for 20 min at 23°C in a dry incubator. Kinase-Glo reagent substrate was added in each well and the luminescence was read with a bioluminescence detection instrument (Safas Spectrometer, Monaco). […]"}}, "note": "“Also recorded” adds a separate entry of the source.", "data": [{"substance": "α-melanocyte-stimulating hormone [α-MSH]", "values": [{"measurement": "anorexigenic effect, cumulative food intake at 30 min", "setting": "male Sprague-Dawley rats", "result": "significant anorexigenic effect"}, {"measurement": "anorexigenic effect, cumulative food intake at 120 min", "setting": "male Sprague-Dawley rats", "result": "significant anorexigenic effect"}, {"measurement": "4-h food intake in wild-type mice", "setting": "wild-type C57Bl/6 mice", "result": "significantly reduced food intake"}, {"measurement": "cAMP production by control HEK 293 cells lacking MC4R, in words", "setting": "[1]", "result": "no significant α-MSH-induced cAMP production; also recorded: did not observe cAMP production"}]}, {"substance": "α-melanocyte-stimulating hormone (peptide)", "values": [{"measurement": "EC50 of cAMP release by hMC4R-expressing HEK 293 cells, IC formed by α-MSH and IgG from controls and ED patients, against free α-MSH", "setting": "[2]", "result": 50, "unit": "%"}, {"measurement": "fold lower affinity than in IC with IgG from controls", "setting": "[3]", "result": 10, "unit": "fold"}]}, {"substance": "adrenocorticotropic hormone [ACTH]", "values": [{"measurement": "functional activity when central part of ACTH is bound by IgG", "setting": "[4]", "result": "preserved its functional activity to stimulate cortisol secretion"}]}, {"substance": "agouti-related protein (SSRRCVRLHESCLGQQVPCCDPCATCYCRFFNAFCYCRKLGTAMNPCSRT; UniProt O00253 83-132, looked up) [AgRP]", "values": [{"measurement": "antagonism of α-MSH- and α-MSH/IgG IC-induced cAMP production", "setting": "human MC4R", "result": "antagonized both α-MSH- and α-MSH/IgG IC-induced cAMP production"}]}]}
